Assay results reported in article PMC4532830, “Crystal structure, biochemical and cellular activities demonstrate separate functions of MTH1 and MTH2” (Nature Communications, 2015).
Where two headings read alike, the source gives them in different places. One block for each molecule: values may come before it.

Key:
MTH1 = biological target: T1, MTH1 (Homo sapiens, UniProt P36639); conditions: pH 7.5 but methods buffer pH 8.0, 10 mM Mg acetate, unit assumed
T1 construct: gene NUDT1

NUDT18 = biological target: T2, NUDT18 (Homo sapiens, UniProt Q6ZVK8); assay: phosphate release, malachite green assay; type: biochemical; conditions: 50 uM nucleotide, 25 nM enzyme, 22 C, 30 min, pH 8.0, 10 mM Mg acetate; which of 8-oxo-dGTP or 8-oxo-dGDP belongs to NUDT18 is not spelt out
T2 construct: recombinant, cDNA codon-optimized for E. coli in pET28a(+); His-tag removed by TEV or thrombin
T2 sequence (Q6ZVK8 1-323): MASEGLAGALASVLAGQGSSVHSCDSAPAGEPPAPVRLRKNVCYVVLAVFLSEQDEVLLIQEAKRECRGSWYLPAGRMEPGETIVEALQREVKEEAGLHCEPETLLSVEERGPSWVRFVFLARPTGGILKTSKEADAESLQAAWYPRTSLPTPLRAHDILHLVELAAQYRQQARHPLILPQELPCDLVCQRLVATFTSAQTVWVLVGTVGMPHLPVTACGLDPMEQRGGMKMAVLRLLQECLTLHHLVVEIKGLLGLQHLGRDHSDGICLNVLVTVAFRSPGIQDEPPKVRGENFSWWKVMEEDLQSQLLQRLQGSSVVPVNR

[1] = biological target: the molecule itself; assay: SEC; 10/300 GL S75 column, 20 mM HEPES pH 7.5, 300 mM NaCl, 10% glycerol, 0.5 mM TCEP; 0.24 mg NUDT15 in 500 ul

Km (MTH1; 0-100 uM 8-oxo-dGTP, 0.25 nM enzyme): 10.2 ± 0.8 µM
Molecule: Nc1nc2c([nH]c(=O)n2[C@H]2C[C@H](O)[C@@H](COP(=O)(O)OP(=O)(O)OP(=O)(O)O)O2)c(=O)[nH]1 [8-oxo-dGTP]

Molecule: Nc1nc2c([nH]c(=O)n2[C@H]2C[C@H](O)[C@@H](COP(=O)(O)OP(=O)(O)O)O2)c(=O)[nH]1 [8-oxo-dGDP]
phosphate release, malachite green assay (NUDT18): NUDT15 and NUDT18 have the ability to hydrolyse 8-oxo-dGTP or 8-oxo-dGDP in biochemical assays

Km (MTH1; 0-400 uM dGTP, 2 nM enzyme): 110 ± 35 µM
Molecule: Nc1nc2c(ncn2[C@H]2C[C@H](O)[C@@H](COP(=O)(O)OP(=O)(O)OP(=O)(O)O)O2)c(=O)[nH]1 [dGTP, 2′-Deoxyguanosine-5′-triphosphate]

B1: NUDT15 (enzyme, human, UniProt Q9NV35 1-164, looked up)
chain: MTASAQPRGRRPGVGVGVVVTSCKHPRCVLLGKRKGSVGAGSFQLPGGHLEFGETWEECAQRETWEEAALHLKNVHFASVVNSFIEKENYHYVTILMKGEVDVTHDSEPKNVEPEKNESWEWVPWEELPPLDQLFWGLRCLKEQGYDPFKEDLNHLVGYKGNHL
notes: NUDT15 (MTH2), human, full length; expression construct pNIC28hNUDT15 from the Structural Genome Consortium; The His-tag was removed by TEV protease or thrombin; Crystals grew in the presence of alpha-chymotrypsin, so the chain in the crystal may be shorter than full length; also called MTH2; MutT homologue 2; source: E. coli BL21 (DE3) T1R pRARE2, purified (HisTrap HP, gel filtration Superdex 75)
stoichiometry N [1]: 2
